Experimental data: patent publication US11013740B2, “Histone deacetylase 6 selective inhibitors for the treatment of cisplatin-induced peripheral neuropathy” (REGENACY PHARMACEUTICALS, LLC, priority 2015, dated 2021)

System: cisplatin-induced numbness
Test: Adhesive removal test (ART) for numbness
Format: in vivo, mice
Settings: treatment starting after two rounds of cisplatin; tested in week 5
Protocol: To quantify signs of cisplatin-induced pain, the von Frey test was used (see below) which measures the decrease in threshold to induce a withdrawal response to a mechanical stimulus (hyperalgesia, one of the characteristics of CIPN). To assess cisplatin-induced numbness, the adhesive removal test (ART) was used. The time it took for the mouse to have a behavioral response to the patch (i.e. shaking or attempted removal) was recorded as a measure of sensory deficit or numbness. To determine if behavioral changes were due to altered general activity or motor function, the locomotor activity (LMA) test and the rotarod test was used. For LMA mice were placed in an open-field testing cage and movement was measured for 5 minutes. For the rotarod, mice were trained for two days and then tested on the rotarod (with increasing speeds) for 5 minutes. Time on the rotarod was recorded. […] The time it took for the mouse to display a behavioral response to the patch (i.e. shaking or attempted removal) was recorded. […]

SMILES: O=C(NO)c1cnc(NC2(c3ccccc3)CCC(F)(F)CC2)nc1 [compound 001]
- time to behavioral response to adhesive patch (numbness): normalized the response time in this test
